Reference: publication PMC10721786, “Development of a potent benzonitrile-based inhibitor of glutaminyl-peptide cyclotransferase-like protein (QPCTL) with antitumor efficacy” (Signal Transduction and Targeted Therapy, 2023)

Tests used:
CD47/SIRPα = test: Cell surface binding of human or mouse SIRPα protein to tumor cells (Raji, B16F10), flow cytometry; type: cell-based
Procedure: Binding to cell surface CD47 was assessed by staining cells with fluorochrome-labeled antibodies clone CC2C6 (BioLegend, Cat. # 323102) and B6H12 (Abcam, Cat. # ab134485) to human CD47 at a dilution of 1:100 in PBS containing 1% FBS (FACS buffer) for 30 min on ice, while protected from light. SIRPα binding to CD47 was assessed by incubating cells with PE labeled recombinant human SIRPα/ CD172α Protein, Fc tag (ACRO Biosystems, Cat. # SIA-HP252) or PE labeled mouse SIRPα Protein, His tag (ACRO Biosystems, Cat. # SIA-MP2H6) for 1 hour on ice, while protected from light.

B16F10 cells = test: In vitro phagocytosis of B16F10 cells by mouse macrophages; type: cell-based
Procedure: (§1) Eight-week-old C57BL/6 wild-type mice were obtained from Shanghai Slaccas Laboratory Animal Co., Ltd.. To obtain bone marrow derived macrophage (BMDM), femora and tibiae were flushed with ice-cold PBS, and erythrocytes were lysed with RBC lysis buffer. Then bone marrow cells were cultured in DMEM medium with 10 % FBS and 100 U/ mL penicillin, and 100 μg/ mL streptomycin in the presence of 50 ng/ mL mouse M-CSF (Macrophage-Colony Stimulating Factor) (PeproTech), 0.1 mM Sodium pyruvate (Gibco, Cat. # 11360-70) and 10 mM HEPES (Gibco, Cat. # 15630-080) for 7 days.
(§2) Phagocytosis assay were conducted as previously described. Briefly, macrophages were plated 1 x 10^5 cells per well in a 48-well plate in complete DMEM medium, supplemented with M-CSF overnight before the experiment. Cancer cells were stained with 5 μM CFSE at 37 °C for 10 min. Each phagocytotic reaction reported in this work was performed by co-culture of target cells and macrophages for 4 hours at 37 °C. Macrophages were identified with APC-labeled anti-F4/80 (Biolegend, Cat. # 123116), and flow cytometry (BD FACSCanto II, San Jose, CA) was performed. Phagocytosis was calculated as the percentage of CFSE^+F4/80^+ cells (Q2) among CFSE^+ cells (Q2+Q3): phagocytosis (%) = [Q2 / (Q2+ Q3)] x100 %.

Raji cells = test: In vitro phagocytosis of Raji cells by mouse macrophages; type: cell-based, human
Procedure: as §1, §2

Raji and B16F10 cells = test: Cell viability (CCK-8) in Raji and B16F10 cells; type: cell-based; conditions: Fig. S5
Procedure: Raji cells (5000 cells/well), B16F10 cells (3000 cells/well) and BMDM (10000 cells/well) were plated in 96-well and cell viability was examined at the time points shown in the figures, with the help of Cell Counting Kit 8 (CCK-8) (Share-bio, Cat. # B-CCK8) according to the manufacturer’s recommendations.

[1] = In vivo toxicity in mice (blood routine, serum biochemistry, HE histology); design: species or system mouse
Procedure: Briefly, male mice were implanted subcutaneously with 5 x 10^5 B16F10 cells resuspended in 100 μL of DMEM on Day 0. Anti-PD-1 antibody or mouse IgG2a isotype control was dosed at 80 µg per mouse intraperitoneally starting on day 6 after tumor implantation, followed by a once-a-week regimen. QPCTL inhibitors was intraperitoneally administered at 25 mg/kg once a day since day 6. Tumors were measured every three days, and mice were sacrificed on day 15. Mouse organs and blood were collected for blood routine, blood serum biochemistry examination and histological evaluation.
Blood routine and blood serum biochemistry examination of mice. Whole blood was collected in EDTA anticoagulant tubes for blood routine test and heparin sodium tubes for blood serum biochemistry examination. Tubes were gently inverted several times to thoroughly mix the blood and anticoagulant. The routine blood test was tested by Automatic Hematology Analyzer (TEK8500H4-0502, TECOM SCIENCE, China). Blood serum was obtained by centrifugation at 4℃ at 4000 rpm for 10 minutes. Serum creatinine (CR) was determined by CR kit (PUREBIO, Cat. # CR01), urea nitrogen (BUN) was determined by BUN kit (PUREBIO, Cat. # URE01), alanine aminotransferase (ALT) was determined by ALT kit (PUREBIO, Cat. # ALT01) and […] was determined by AST kit (PUREBIO, Cat. # AST01) according to the manufacturer’s instructions. […]

For Cn1cncc1C1CCN(c2c(C#N)cccc2-c2ccc(F)nc2)CC1 [QP5038], the “binding of human or mouse SIRPα protein to cell surface” value (CD47/SIRPα) was “significantly reduced”, the “phagocytosis of B16F10 cells” value (B16F10 cells; 10 μM inhibitor 48 h, in combination with TA99, mouse macrophages) was “significantly boosted” and the “flow cytometry quadrant Q1” value (B16F10 cells; 48 h, 10 µM) was 34.7. For the same molecule, the “flow cytometry quadrant Q2 (CFSE+F4/80+ cells)” value (B16F10 cells; 48 h, 10 µM) was 5.39, the “flow cytometry quadrant Q3” value (B16F10 cells; 48 h, 10 µM) was 59.0 and the “flow cytometry quadrant Q4” value (B16F10 cells; 48 h, 10 µM) was 0.89. The “efficiency on phagocytosis compared with SEN177 and PQ912” value (B16F10 cells; B16F10 and Raji cells, 10 μM 48 h, Fig. 1h–k, Fig. S6) was “much better than that of SEN177 and PQ912”, the “phagocytosis of Raji cells” value (Raji cells; 10 μM inhibitor 48 h, synergized with rituximab, mouse macrophages) was “significantly boosted” and the “flow cytometry quadrant Q1” value (Raji cells; 48 h, 10 µM) was 26.4. For the same molecule, the “flow cytometry quadrant Q2 (CFSE+F4/80+ cells)” value (Raji cells; 48 h, 10 µM) was 2.74, the “flow cytometry quadrant Q3” value (Raji cells; 48 h, 10 µM) was 70.1 and the “flow cytometry quadrant Q4” value (Raji cells; 48 h, 10 µM) was 0.70. The cell viability (Raji and B16F10 cells) was “did not markedly impair”, the “organ damage (HE staining)” value ([1]; C57B/L6 mice, 25 mg/kg daily for 15 days, Fig. S10) was “would not cause” and the abnormal blood composition ([1]; mice, 25 mg/kg daily, Fig. S11) was “would not cause”.
